Laboratory results: US20080300314A1, “Cooling Compounds” (Givaudan SA, priority 2003, published 2008)

How the values were obtained:
Assay type in all cases: in vivo, human
panelists [1] = assay: Testing of compounds: panel tasting of aqueous solutions against menthol at 2 ppm (Table 2); settings: for Concentration [ppm]: aqueous solution (compound dissolved in ethanol at 1% by weight, then dosed into water), cooling intensity similar to or slightly higher than menthol at 2 ppm; for Description: panel description of the aqueous solution at the concentration listed in Table 2, reference menthol 2 ppm
Source text: A small group of panelists were asked to taste various aqueous solutions of compounds. The compounds were first dissolved in ethanol at 1% by weight and then dosed into water.

panelists [2] = assay: Panel taste test: longevity of cooling in the mouth (Table 1); settings: solutions tasted at the chosen concentration; time until no cooling could be sensed in the mouth
Source text: In a second experiment, the same panel was asked to taste the solutions at the chosen concentrations and to record the cooling intensity at regular time intervals until no cooling could be sensed in the mouth.

panelists [3] = assay: Panel taste test: concentration with cooling intensity similar or slightly higher than menthol at 2 ppm (Table 1); settings: solution judged to have cooling intensity similar or slightly higher than menthol at 2 ppm; tasted by small panel
mouth = assay: Application in toothpaste; settings: toothgel with 2.5 g per 100 g of a 2% solution in PG; teeth brushed, mouth rinsed with water
Source text: [table] The materials are mixed in the toothgel, and a panelist's teeth are brushed using this toothgel. The mouth is rinsed with water and the water spit out. […] The cooling perception lasts for several hours.

Row | Structure (SMILES) | Concentration [ppm] (panelists [1]) | Description (panelists [1]) | also measured
1 | CCOC(=O)Cc1ccc(NC(=O)[C@@H]2C[C@H](C)CC[C@H]2C(C)C)cc1 [Example 29, ethyl 2-(4-((1R,2S,5R)-2-isopropyl-5-methylcyclohexane-carboxamido)phenyl)acetate] | 2 | icy, crisp cool on tongue | –
2 | CC1CCC(C(C)C)C(C(=O)Nc2ccc(C#N)cc2)C1 (centres unmarked) [Example 3, N-(4-cyanophenyl) p-menthanecarboxamide] | – | – | Longevity (panelists [2]): 90 min; Concentration (panelists [3]): 0.5 ppm
3 | COC(=O)c1ccc(NC(=O)[C@@H]2C[C@H](C)CC[C@H]2C(C)C)cc1OC [Example 9, methyl 4-((1R,2S,5R)-2-isopropyl-5-methylcyclohexane-carboxamido)-2-methoxybenzoate] | 0.005 | – | –
4 | CC1CCC(C(C)C)C(C(=O)Nc2ccc(CC#N)cc2)C1 (centres unmarked) [Example 1, N-(4-cyanomethylphenyl) p-menthanecarboxamide] | – | – | Longevity (panelists [2]): 93 min; Concentration (panelists [3]): 0.2 ppm
5 | CC(C)[C@@H]1CC[C@@H](C)C[C@H]1C(=O)Nc1ccccc1C#N [Example 32] | 2 | mouthcoating, more cooling than menthol | –
6 | CC(C)[C@@H]1CC[C@@H](C)C[C@H]1C(=O)Nc1ccc(C(=O)O)cc1 [Example 23, 4-((1R,2S,5R)-2-isopropyl-5-methylcyclohexane-carboxamido)benzoic acid] | 2 | slightly burning then cooling | –
7 | CC(C)[C@@H]1CC[C@@H](C)C[C@H]1O [Example 1-Menthol, (1R, 2S, 5R)-2-isopropyl-5-methyl-cyclohexanol, reference compound] | – | – | Longevity (panelists [2]): 35 min; Concentration (panelists [3]): 2.0 ppm
8 | CC(C)[C@@H]1CC[C@@H](C)C[C@H]1C(=O)NCc1ccc(C(=O)O)cc1 [Example 24, 4-(((1R,2S,5R)-2-isopropyl-5-methylcyclohexane-carboxamido)methyl)benzoic acid] | 2 | little cooling, slightly refreshing | –
9 | CCOC(=O)c1ccc(NC(=O)[C@@H]2C[C@H](C)CC[C@H]2C(C)C)cc1 [Example 16, ethyl 4-((1R,2S,5R)-2-isopropyl-5-methylcyclohexane-carboxamido)benzoate] | 2 | Cooling similar to menthol | –
10 | CC(C)[C@@H]1CC[C@@H](C)C[C@H]1C(=O)Nc1ccccc1C#N [Example 30, (1R,2S,5R)-N-(2-cyanophenyl)-2-isopropyl-5-methylcyclohexane-carboxamide] | 2 | clean, slightly stronger than menthol | –
11 | COC(=O)c1ccc(NC(=O)[C@@H]2C[C@H](C)CC[C@H]2C(C)C)cc1 [Example 15, methyl 4-((1R,2S,5R)-2-isopropyl-5-methylcyclohexane-carboxamido)benzoate] | 2 | slightly cooling, flat cooling | –
12 | CC1CCC(C(C)C)C(C(=O)Nc2ccc(S(N)(=O)=O)cc2)C1 (centres unmarked) [Example 2, N-(4-sulfamoylphenyl) p-menthanecarboxamide] | – | – | Cooling sensation felt in the mouth (mouth): intense cooling sensation; Duration of cooling perception (mouth): several hours
13 | CC(C)[C@@H]1CC[C@@H](C)C[C@H]1C(=O)NCc1ccc(C#N)cc1 [Example 25, (1R,2S,5R)-N-(4-cyanobenzyl)-2-isopropyl-5-methylcyclohexanecarboxamide] | 2 | good icy cooling, slightly astringent | –
14 | CCNC(=O)C1CC(C)CCC1C(C)C (centres unmarked) [N-ethyl p-menthanecarboxamide (WS-3), N-ethyl p-menthanecarboxamide, reference compound] | – | – | Longevity (panelists [2]): 57 min; Concentration (panelists [3]): 1.5 ppm
15 | CC(C)[C@@H]1CC[C@@H](C)C[C@H]1C(=O)NCc1ccc(C(=O)O)cc1 [Example 28, 4-(((1R,2S,5R)-2-isopropyl-5-methyl-cyclohexanecarboxamido)-methyl)benzoic acid] | 2 | strong cooling up front, peppery heat | –
16 | CC(C)Oc1ccc(CNC(=O)[C@@H]2C[C@H](C)CC[C@H]2C(C)C)cc1 [Example 7, (1R,2S,5R)-N-(4-isopropoxybenzyl)-2-isopropyl-5-methylcyclohexanecarboxamide] | 0.01 | – | –
17 | CC(C)[C@@H]1CC[C@@H](C)C[C@H]1C(=O)NCc1ccc(S(N)(=O)=O)cc1 [Example 27, (1R,2S,5R)-2-isopropyl-5-methyl-N-(4-sulfamoylbenzyl)-cyclohexanecarboxamide] | 2 | – | –
18 | CC(C)[C@@H]1CC[C@@H](C)CC1C(=O)Nc1cccc(C#N)c1 (stereo partly drawn) [Example 31, (2S,5R)-N-(3-cyanophenyl)-2-isopropyl-5-methylcyclohexane-carboxamide] | 1 | weak cooling, tingling, numbing on tongue, | –
19 | CC(C)[C@@H]1CC[C@@H](C)C[C@H]1C(=O)Nc1ccc(C=O)cc1 [Example 19, (1R,2S,5R)-N-(4-formylphenyl)-2-isopropyl-5-methylcyclo-hexanecarboxamide] | 2 | cooling builds and lingers | –
